Laboratory results published in patent publication US20150148377A1, “Quinoline Derivatives” (NOVARTIS AG, priority 2011, published 2015).
pIC50: −log10 of the molar value.

Columns and labels:
PI3K alpha = molecular target: T1, PI3K alpha (Homo sapiens, UniProt P42336); test: Enzymatic PI3K alpha isoform inhibition (lipid kinase activity, Kinase-Glo); type: biochemical; conditions: enzymatic assay
T1 construct: His tag (C); made in house; host or cells: baculovirus; Tn5 (Trichoplusia ni) or TiniPro insect cells
Method in brief: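 Lipid kinase reaction with 10 nM PI3Kα, 1 μM ATP and 10 μg/mL phosphatidylinositol in pH 7.5 Tris with MgCl2, NaCl, CHAPS and DTT, run 60 min at room temperature. Remaining ATP read by Kinase-Glo luminescence. IC50 from 8-point 4-parameter logistic fits.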

PI3K delta = molecular target: T2, PI3K delta (Homo sapiens, UniProt O00329); test: Enzymatic PI3K delta isoform inhibition (lipid kinase activity, Kinase-Glo); type: biochemical; conditions: enzymatic assay
T2 construct: for the full-length p110-d subunit are generated and fused by overlapping PCR; His tag (C); made in house; host or cells: baculovirus; Tn5 (Trichoplusia ni) or TiniPro insect cells
Method in brief: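 Preferred format: PI3Kδ 10 nM with PI 10 μg/mL and ATP 1 μM in Tris 10 mM pH 7.5, MgCl2 3 mM, NaCl 50 mM, CHAPS, DTT; 60 min at RT, 8 concentrations. ATP depletion read by Kinase-Glo luminescence; IC50 from four-parameter logistic fit.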

T2 sequence (O00329 with tags, fused parts or gaps limits assumed): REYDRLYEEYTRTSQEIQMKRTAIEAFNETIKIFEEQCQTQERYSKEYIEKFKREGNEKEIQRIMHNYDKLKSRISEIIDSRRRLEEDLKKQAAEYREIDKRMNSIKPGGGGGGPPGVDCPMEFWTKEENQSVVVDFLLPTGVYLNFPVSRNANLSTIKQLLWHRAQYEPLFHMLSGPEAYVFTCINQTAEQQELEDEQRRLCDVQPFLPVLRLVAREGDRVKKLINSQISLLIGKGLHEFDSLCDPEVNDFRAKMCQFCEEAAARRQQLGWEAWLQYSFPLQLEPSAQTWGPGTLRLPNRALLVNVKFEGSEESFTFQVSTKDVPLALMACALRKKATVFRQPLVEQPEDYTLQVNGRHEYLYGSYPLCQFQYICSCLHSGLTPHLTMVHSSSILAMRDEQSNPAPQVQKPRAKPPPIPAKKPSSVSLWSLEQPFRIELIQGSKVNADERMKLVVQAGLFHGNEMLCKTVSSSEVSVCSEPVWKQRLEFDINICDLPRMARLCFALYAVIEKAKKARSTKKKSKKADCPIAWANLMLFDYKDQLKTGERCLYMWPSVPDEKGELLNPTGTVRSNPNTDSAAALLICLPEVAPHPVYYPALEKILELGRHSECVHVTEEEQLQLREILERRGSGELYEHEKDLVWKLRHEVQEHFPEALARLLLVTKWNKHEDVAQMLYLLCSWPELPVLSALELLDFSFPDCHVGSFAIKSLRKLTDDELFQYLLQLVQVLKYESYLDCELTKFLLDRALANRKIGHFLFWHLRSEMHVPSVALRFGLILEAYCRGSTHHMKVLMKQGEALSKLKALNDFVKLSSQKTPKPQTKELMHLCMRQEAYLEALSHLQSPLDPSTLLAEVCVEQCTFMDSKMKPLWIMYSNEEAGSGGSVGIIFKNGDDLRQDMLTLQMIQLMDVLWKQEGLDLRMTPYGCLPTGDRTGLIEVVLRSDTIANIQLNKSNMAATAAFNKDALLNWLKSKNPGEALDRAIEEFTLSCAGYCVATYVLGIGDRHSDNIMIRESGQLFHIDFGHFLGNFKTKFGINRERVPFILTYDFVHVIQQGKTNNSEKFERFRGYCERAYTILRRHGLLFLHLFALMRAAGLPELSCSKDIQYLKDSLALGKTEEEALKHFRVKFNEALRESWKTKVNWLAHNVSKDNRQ
T1 sequence (P42336 with tags, fused parts or gaps limits assumed): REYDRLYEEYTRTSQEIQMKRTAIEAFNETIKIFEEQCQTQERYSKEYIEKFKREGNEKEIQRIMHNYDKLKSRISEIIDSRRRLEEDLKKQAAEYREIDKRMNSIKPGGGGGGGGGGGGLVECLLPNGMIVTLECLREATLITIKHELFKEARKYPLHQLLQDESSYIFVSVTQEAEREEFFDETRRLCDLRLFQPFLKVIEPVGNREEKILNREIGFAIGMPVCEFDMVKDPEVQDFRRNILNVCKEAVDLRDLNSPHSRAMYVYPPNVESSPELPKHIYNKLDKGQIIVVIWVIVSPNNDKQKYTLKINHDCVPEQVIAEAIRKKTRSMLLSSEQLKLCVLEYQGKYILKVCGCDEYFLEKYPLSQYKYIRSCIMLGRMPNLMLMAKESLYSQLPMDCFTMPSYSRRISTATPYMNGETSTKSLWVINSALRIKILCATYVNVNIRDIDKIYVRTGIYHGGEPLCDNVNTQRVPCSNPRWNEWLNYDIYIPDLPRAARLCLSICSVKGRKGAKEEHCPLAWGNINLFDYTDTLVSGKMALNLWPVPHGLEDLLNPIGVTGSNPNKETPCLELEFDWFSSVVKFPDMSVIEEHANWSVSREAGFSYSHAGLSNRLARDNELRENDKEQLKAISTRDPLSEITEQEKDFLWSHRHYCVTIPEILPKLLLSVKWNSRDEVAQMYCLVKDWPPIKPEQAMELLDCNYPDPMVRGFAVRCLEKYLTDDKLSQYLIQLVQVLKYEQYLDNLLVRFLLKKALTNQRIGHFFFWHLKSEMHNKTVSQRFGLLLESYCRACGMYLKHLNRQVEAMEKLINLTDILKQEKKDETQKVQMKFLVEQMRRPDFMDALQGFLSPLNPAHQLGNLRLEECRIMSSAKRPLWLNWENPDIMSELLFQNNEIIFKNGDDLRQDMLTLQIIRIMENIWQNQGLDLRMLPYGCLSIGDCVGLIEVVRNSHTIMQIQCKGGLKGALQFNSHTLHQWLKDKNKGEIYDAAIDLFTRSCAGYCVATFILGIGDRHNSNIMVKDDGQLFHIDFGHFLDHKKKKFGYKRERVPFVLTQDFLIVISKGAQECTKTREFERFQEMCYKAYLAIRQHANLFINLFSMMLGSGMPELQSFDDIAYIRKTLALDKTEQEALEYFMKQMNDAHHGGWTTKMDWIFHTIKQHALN

| SMILES | pIC50 (PI3K alpha) | pIC50 (PI3K delta) |
| --- | --- | --- |
| COc1ncc(-c2ccnc3ccc(O[C@H]4CCN(C(=O)C5CCS(=O)(=O)CC5)C4)cc23)cc1C(F)F [Example A6, {(S)-3-[4-(5-Difluoromethyl-6-methoxy-pyridin-3-yl)-quinolin-6-yloxy]-pyrrolidin-1-yl}-(1,1-dioxo-hexahydro-1lambda*6*-thiopyran-4-yl)-methanone] | 7.28 | 8.40 |
| COc1ncc(-c2ccnc3ccc(O[C@H]4CCN(C(=O)[C@@H]5CCN(C(C)=O)C5)C4)c(C)c23)cc1C(F)F [Example B1, 1-((R)-3-{(S)-3-[4-(5-Difluoromethyl-6-methoxy-pyridin-3-yl)-5-methylquinolin-6-yloxy]-pyrrolidine-1-carbonyl}-pyrrolidin-1-yl)-ethanone] | 7.20 | 8.30 |
| COc1ncc(-c2ccnc3ccc(O[C@H]4CCN(C(=O)C5CCS(=O)(=O)CC5)C4)c(C)c23)cc1C [Example B3, (1,1-Dioxo-hexahydro-1lambda*6*-thiopyran-4-yl)-{(S)-3-[4-(6-methoxy-5-methyl-pyridin-3-yl)-5-methyl-quinolin-6-yloxy]-pyrrolidin-1-yl}-methanone] | 6.30 | 8.30 |
| COc1ncc(-c2ccnc3cc(F)c(O[C@H]4CCN(C(=O)C5CCS(=O)(=O)CC5)C4)cc23)cc1C [Example C1, (1,1-Dioxo-hexahydro-1lambda*6*-thiopyran-4-yl)-{(S)-3-[7-fluoro-4-(6-methoxy-5-methyl-pyridin-3-yl)-quinolin-6-yloxy]-pyrrolidin-1-yl}-methanone] | 5.51 | 6.52 |

Further lines, results first:

| pIC50 (PI3K alpha) | pIC50 (PI3K delta) | SMILES |
| --- | --- | --- |
| 7.11 | > 8.52 | COc1ncc(-c2ccnc3ccc(O[C@H]4CCN(C(=O)C5CCS(=O)(=O)CC5)C4)cc23)cc1Cl [Example A1, {(S)-3-[4-(5-Chloro-6-methoxy-pyridin-3-yl)-quinolin-6-yloxy]-pyrrolidin-1-yl}-(1,1-dioxo-hexahydro-1lambda*6*-thiopyran-4-yl)-methanone] |
| 5.87 | 8.30 | COc1ncc(-c2ccnc3ccc(O[C@H]4CCN(C(=O)[C@@H]5CCN(C(C)=O)C5)C4)cc23)cc1C [Example A10, 1-((R)-3-{(S)-3-[4-(6-Methoxy-5-methyl-pyridin-3-yl)-quinolin-6-yloxy]-pyrrolidine-1-carbonyl}-pyrrolidin-1-yl)-ethanone] |
| 6.73 | 8.15 | COc1ncc(-c2ccnc3ccc(O[C@H]4CCN(C(=O)C5CCS(=O)(=O)CC5)C4)cc23)cc1C [Example A15, (1,1-Dioxo-hexahydro-1lambda*6*-thiopyran-4-yl)-{(S)-3-[4-(6-methoxy-5-methyl-pyridin-3-yl)-quinolin-6-yloxy]-pyrrolidin-1-yl}-methanone] |
| 7.17 | 7.92 | COc1ncc(-c2ccnc3ccc(O[C@H]4CCN(C(=O)[C@@H]5CCN(C(C)=O)C5)C4)cc23)cc1C(F)F [Example A24, 1-((R)-3-{(S)-3-[4-(5-Difluoromethyl-6-methoxy-pyridin-3-yl)-quinolin-6-yloxy]-pyrrolidine-1-carbonyl}-pyrrolidin-1-yl)-ethanone] |
| 6.09 | 7.92 | CCC(=O)N1CC[C@H](Oc2ccc3nccc(-c4cnc(S(C)(=O)=O)c(C)c4)c3c2)C1 [Example A25, 1-{(S)-3-[4-(6-Methanesulfonyl-5-methyl-pyridin-3-yl)-quinolin-6-yloxy]-pyrrolidin-1-yl}-propan-1-one] |
| 5.25 | 6.48 | Cc1cc(-c2ccnc3cc(F)c(O[C@H]4CCN(C(=O)C5CCOCC5)C4)cc23)cnc1S(C)(=O)=O [Example C2, {(S)-3-[7-Fluoro-4-(6-methanesulfonyl-5-methyl-pyridin-3-yl)-quinolin-6-yloxy]-pyrrolidin-1-yl}-(tetrahydro-pyran-4-yl)-methanone] |
